According to patent US6174855A, “Pharmaceutical compositions comprising thrombin inhibitors and their use in the control of wound healing processes” (AstraZeneca AB, priority 1996, dated 2001):
Where “and” joins values, the source holds several entries; their conditions need not be identical. Equal entries are not always repeated. Values belong to the molecule of their own block, whether it stands above or below them.

Columns and labels:
[1] = system: fibrin-related adhesions between the stomach and the liver, the intestines and the omentum; test: Acetic acid injury to the serosal surface of the rat stomach: formation of adhesions; format: in vivo; settings: for Adherences score: day 7
Protocol: The serosal surface of the stomach of an adult anaesthetised rat was exposed in an area of 7 mm diameter to 80% acetic acid over 60 seconds. After rinsing with buffered saline solution, an osmotic minipump (Alza 2001, volume about 220 μL; pumping rate about 1 μL/h; Alza Corp.; Palo Alto, Calif., USA; prefilled with a solution of the thrombin inhibitor melagatran, 2-100 μg/mL) was implanted into the peritoneal cavity, with the outlet of the pump kept open, and delivered its content into the abdominal cavity. The wounded area was covered by a chitosan membrane or, in an alternative experiment, a gel, having a diameter several millimeters larger than that of the injured area.
The serosal surface of the stomach of an adult, anaesthetised rat was exposed in an area of 7 mm diameter to 80% acetic acid over 60 seconds. After rinsing with buffered saline, the wounded area was covered by a chitosan membrane or, in an alternative experiment, a gel, having a diameter several millimeters larger than the injured area. An osmotic minipump (Alza 2001, volume about 220 μL; pumping rate about 1 μL/h; Alza Corp.; Palo Alto, Calif., USA; prefilled with a solution of the thrombin inhibitor melagatran, 2-100 μg/mL) was implanted subcutaneously, with the outlet of the pump kept open, delivering its content into the adjacent tissue. […]

[2] = system: adhesions between injured area and adjacent muscles, muscle fascia, vessels, nerves and skin; test: Surgical removal of thigh muscle fascia in rat: adhesions inspected after 10 days; format: in vivo; settings: subcutaneous minipump 0.2×100μg/mL, versus untreated animals
Description: An incision was made in the thigh through the skin into the muscle tissue in an anaesthetised adult rat, and the muscle fascia was surgically removed in a defined area (about 10×15 mm). The wound was sutured, and eventually opened for inspection after 10 days. Numerous adhesions were recognized, and the presence of granulation tissue were noticed to connect and lock the injured area to adjacent muscles, muscle fascia, vessels and nerves as well as to the skin.
An incision was made in the thigh through the skin into the muscle tissue in an anaesthetised adult rat and the muscle fascia was surgically removed in a defined area (about 10×15 mm). The muscle fascia was covered by a chitosan membrane or, in an alternative experiment, a gel, to which was connected a tube from an osmotic minipump, which had been implanted subcutaneously (Alza 2001, total volume about 220 μL; pumping rate about 1 μL/h; Alza Corp.; Palo Alto, Calif., USA; prefilled with a solution of the thrombin inhibitor melagatran, 0.2×100μg/mL). The wound was then sutured, and eventually opened and inspected after 10 days.

[3] = Plasma concentration of inogatran during intraperitoneal minipump infusion; format: in vivo, rat; settings: for Mean Plasma Conc.: two rats
[4] = Bleeding observations during inogatran minipump infusion; format: in vivo, rat; settings: day 7
Description: (§1) The serosal surfaces of the stomachs of adult, anaesthetised rats were exposed in an area 7 mm diameter to 80% acetic acid over 60 seconds and then rinsed with buffered saline.

[5] = Plasma concentration of inogatran during intraperitoneal minipump infusion; format: in vivo, rat
Description: as §1

[6] = infusion rate 1*10 μL/h, 658 μg/h
[7] = infusion rate 2*10 μL/h, 1317 μg/h

Molecule: streptokinase: fibrinolytic agent, purchased from Sigma Chemical Co
fibrin-platelet network or strands of granulation tissue between the stomach and the liver, the intestines and the omentum ([1]; intraperitoneal minipump, outlet connected to surface of chitosan membrane (or gel), up to 10 days): No fibrin-platelet network nor any strands of granulation tissue could be detected | fibrin network or strands of newly formed granulation tissue connecting the stomach with the liver, the intestines and the omentum ([1]; minipump in abdominal cavity, outlet free and open, wound covered by chitosan membrane or gel, up to 10 days): No fibrin network, nor any strands of newly formed granulation tissue, could be detected

Molecule: hirudin
fibrin network or strands of granulation tissue between the stomach and the liver, the intestines and the omentum ([1]; intraperitoneal minipump for a week, wound covered by hyaluronan or chitosan membrane, up to 10 days): No fibrin network or strands of granulation tissue could be detected

Molecule: N=C(N)c1ccc(CNC(=O)[C@@H]2CCN2C(=O)[C@H](NCC(=O)O)C2CCCCC2)cc1 [melagatran, HOOC--CH2 --(R)Cgl-Aze-Pab-H]
bridging tissue (adhesions) between the stomach and the liver, the intestines and the omentum ([1]; 100 μL of 100-500 μg/mL solution dripped daily onto chitosan membrane or gel, after 2 to 5 days): absolutely no bridging tissue | fibrin network or strands of granulation tissue between the stomach and the liver, the intestines and the omentum ([1]; intraperitoneal minipump 2-100 μg/mL, outlet connected to chitosan membrane or gel, up to 10 days): No fibrin network or strands of granulation tissue could be detected | fibrin network or strands of granulation tissue between the stomach and the liver, the intestines and the omentum ([1]; intraperitoneal minipump 2-100 μg/mL, outlet open into abdominal cavity, wound covered by chitosan membrane or gel, up to 10 days): No fibrin network, nor any strands of granulation tissue, could be detected | adhesions between the stomach and the liver, the intestines and the omentum ([1]; minipump in peritoneal cavity, 2-100 μg/mL, about 1 μL/h, no polysaccharide, up to 10 days): only scattered, delicate adhesions | fibrin network or strands of granulation tissue between the stomach and the liver, the intestines and the omentum ([1]; subcutaneous minipump 2-100 μg/mL, outlet open, wound covered by chitosan membrane or gel, up to 14 days): No fibrin network, nor any strands of granulation tissue, could be detected | severity and dimensions of the adhesions formed between adjacent structures ([2]; tube connected to chitosan membrane or gel over the muscle fascia): strikingly reduced | granulation tissue connecting and locking the injured area to adjacent structures ([2]; tube connected to chitosan membrane or gel): largely not connecting

Mean Plasma Conc. ([3]; infusion rate 1*1 μL/h, 66 μg/h, day 7): 180 nM | Mean Plasma Conc. ([3]; infusion rate 1*10 μL/h, 658 μg/h, day 7): 1840 nM | Plasma Conc. ([3]; infusion rate 2*1 μL/h, 132 μg/h (269 and 248 μg/kg/h), day 7): 240 nM and 370 nM | Mean Plasma Conc. ([3]; infusion rate 2*1 μL/h, 132 μg/h, day 7): 310 nM | Plasma Conc. ([3]; infusion rate 2*10 μL/h, 1317 μg/h (2761 μg/kg/h), day 1): 4440 nM | Plasma Conc. ([3]; infusion rate 2*10 μL/h, 1317 μg/h (2761 μg/kg/h), day 2): 2820 nM | Plasma Conc. ([3]; infusion rate 2*10 μL/h, 1317 μg/h (2761 μg/kg/h), day 7): 5560 nM | bleeding observation [4, 6]: Minor Tendency to Bleed | bleeding observation [4, 7]: Diffuse Bleeding | Plasma Conc. ([5]; infusion rate 1*1 μL/h, 66 μg/h (124 and 142 μg/kg/h), day 1): 580 nM and 610 nM | Plasma Conc. ([5]; infusion rate 1*1 μL/h, 66 μg/h (124 and 142 μg/kg/h), day 7): 170 nM and 190 nM | Plasma Conc. ([5]; infusion rate 1*10 μL/h, 658 μg/h (1327 and 1351 μg/kg/h), day 7): 1880 nM and 1790 nM | Plasma Conc. ([5]; infusion rate 2*1 μL/h, 132 μg/h (269 and 248 μg/kg/h), day 1): 470 nM and 460 nM | Plasma Conc. ([5]; infusion rate 4*1 μL/h, 264 μg/h (588 and 558 μg/kg/h), day 1): 1270 nM and 810 nM | Plasma Conc. ([5]; infusion rate 4*1 μL/h, 264 μg/h (588 and 558 μg/kg/h), day 2): 470 nM and 890 nM | Plasma Conc. ([5]; infusion rate 4*1 μL/h, 264 μg/h (588 and 558 μg/kg/h), day 7): 570 nM and 870 nM | Mean Plasma Conc. ([5]; infusion rate 4*1 μL/h, 264 μg/h, two rats, day 7): 720 nM
Molecule: N=C(N)NCCCNC(=O)[C@@H]1CCCCN1C(=O)[C@@H](CC1CCCCC1)NCC(=O)O [inogatran, HOOC--CH2 --(R)Cha-Pic-Nag-H]
Adherences score ([1]; infusion rate 1*1 μL/h, 66 μg/h): 3 and 4 | Adherences score [1, 6]: 0 | Adherences score ([1]; infusion rate 2*1 μL/h, 132 μg/h): 2 | Adherences score [1, 7]: 0 | formation of adhesions, dose dependence ([1]; intraperitoneal minipump(s) 65.86 μg/μL, 1 to 20 μL/h, for a week): prevented in a dose-response related manner
